From US10077261B2, “Imidazolin-5-one derivative useful as FASN inhibitors for the treatment of cancer” (Janssen Pharmaceutica NV, priority 2012, dated 2018)

Experiments:
A2780 ovarian cells [1] = assay: A2780 ovarian cell proliferation assay in lipid reduced medium, with palmitate (MTT); assay type: cell-based; details: Homo sapiens, A2780, 96 h; read-out: pIC50 A2780 Ovarian Cell, With Palmitate (converted)
Procedure, shortened: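 Seeded cells were switched next day to lipid-reduced serum, exposed to compound and 25 μM palmitate complexed with fatty-acid-free BSA, and incubated 96 h. Proliferation was then determined by MTT absorbance at 544 nm, with a best-fit curve of signal against concentration.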

A2780 ovarian cells [2] = assay: A2780 ovarian cell proliferation assay in lipid reduced medium, without palmitate (MTT); assay type: cell-based; details: Homo sapiens, A2780, 96 h; read-out: pIC50 A2780 Ovarian Cell, Without Palmitate (converted)
[3] = target: T1, hFASN enzyme (full length) (Homo sapiens, UniProt P49327); assay: Fatty Acid Synthase (FASN) inhibition scintillation proximity assay; assay type: biochemical; details: for inhibition at 10 µM: read-out: Human FASN % inhibition @ 10 μM, 10 μM test compound; for IC50: read-out: Human FASN pIC50 (converted)
T1 construct: 10 μL hFASN enzyme (full length, 300 ng, purified in house); made in house
T1 sequence (P49327 whole entry): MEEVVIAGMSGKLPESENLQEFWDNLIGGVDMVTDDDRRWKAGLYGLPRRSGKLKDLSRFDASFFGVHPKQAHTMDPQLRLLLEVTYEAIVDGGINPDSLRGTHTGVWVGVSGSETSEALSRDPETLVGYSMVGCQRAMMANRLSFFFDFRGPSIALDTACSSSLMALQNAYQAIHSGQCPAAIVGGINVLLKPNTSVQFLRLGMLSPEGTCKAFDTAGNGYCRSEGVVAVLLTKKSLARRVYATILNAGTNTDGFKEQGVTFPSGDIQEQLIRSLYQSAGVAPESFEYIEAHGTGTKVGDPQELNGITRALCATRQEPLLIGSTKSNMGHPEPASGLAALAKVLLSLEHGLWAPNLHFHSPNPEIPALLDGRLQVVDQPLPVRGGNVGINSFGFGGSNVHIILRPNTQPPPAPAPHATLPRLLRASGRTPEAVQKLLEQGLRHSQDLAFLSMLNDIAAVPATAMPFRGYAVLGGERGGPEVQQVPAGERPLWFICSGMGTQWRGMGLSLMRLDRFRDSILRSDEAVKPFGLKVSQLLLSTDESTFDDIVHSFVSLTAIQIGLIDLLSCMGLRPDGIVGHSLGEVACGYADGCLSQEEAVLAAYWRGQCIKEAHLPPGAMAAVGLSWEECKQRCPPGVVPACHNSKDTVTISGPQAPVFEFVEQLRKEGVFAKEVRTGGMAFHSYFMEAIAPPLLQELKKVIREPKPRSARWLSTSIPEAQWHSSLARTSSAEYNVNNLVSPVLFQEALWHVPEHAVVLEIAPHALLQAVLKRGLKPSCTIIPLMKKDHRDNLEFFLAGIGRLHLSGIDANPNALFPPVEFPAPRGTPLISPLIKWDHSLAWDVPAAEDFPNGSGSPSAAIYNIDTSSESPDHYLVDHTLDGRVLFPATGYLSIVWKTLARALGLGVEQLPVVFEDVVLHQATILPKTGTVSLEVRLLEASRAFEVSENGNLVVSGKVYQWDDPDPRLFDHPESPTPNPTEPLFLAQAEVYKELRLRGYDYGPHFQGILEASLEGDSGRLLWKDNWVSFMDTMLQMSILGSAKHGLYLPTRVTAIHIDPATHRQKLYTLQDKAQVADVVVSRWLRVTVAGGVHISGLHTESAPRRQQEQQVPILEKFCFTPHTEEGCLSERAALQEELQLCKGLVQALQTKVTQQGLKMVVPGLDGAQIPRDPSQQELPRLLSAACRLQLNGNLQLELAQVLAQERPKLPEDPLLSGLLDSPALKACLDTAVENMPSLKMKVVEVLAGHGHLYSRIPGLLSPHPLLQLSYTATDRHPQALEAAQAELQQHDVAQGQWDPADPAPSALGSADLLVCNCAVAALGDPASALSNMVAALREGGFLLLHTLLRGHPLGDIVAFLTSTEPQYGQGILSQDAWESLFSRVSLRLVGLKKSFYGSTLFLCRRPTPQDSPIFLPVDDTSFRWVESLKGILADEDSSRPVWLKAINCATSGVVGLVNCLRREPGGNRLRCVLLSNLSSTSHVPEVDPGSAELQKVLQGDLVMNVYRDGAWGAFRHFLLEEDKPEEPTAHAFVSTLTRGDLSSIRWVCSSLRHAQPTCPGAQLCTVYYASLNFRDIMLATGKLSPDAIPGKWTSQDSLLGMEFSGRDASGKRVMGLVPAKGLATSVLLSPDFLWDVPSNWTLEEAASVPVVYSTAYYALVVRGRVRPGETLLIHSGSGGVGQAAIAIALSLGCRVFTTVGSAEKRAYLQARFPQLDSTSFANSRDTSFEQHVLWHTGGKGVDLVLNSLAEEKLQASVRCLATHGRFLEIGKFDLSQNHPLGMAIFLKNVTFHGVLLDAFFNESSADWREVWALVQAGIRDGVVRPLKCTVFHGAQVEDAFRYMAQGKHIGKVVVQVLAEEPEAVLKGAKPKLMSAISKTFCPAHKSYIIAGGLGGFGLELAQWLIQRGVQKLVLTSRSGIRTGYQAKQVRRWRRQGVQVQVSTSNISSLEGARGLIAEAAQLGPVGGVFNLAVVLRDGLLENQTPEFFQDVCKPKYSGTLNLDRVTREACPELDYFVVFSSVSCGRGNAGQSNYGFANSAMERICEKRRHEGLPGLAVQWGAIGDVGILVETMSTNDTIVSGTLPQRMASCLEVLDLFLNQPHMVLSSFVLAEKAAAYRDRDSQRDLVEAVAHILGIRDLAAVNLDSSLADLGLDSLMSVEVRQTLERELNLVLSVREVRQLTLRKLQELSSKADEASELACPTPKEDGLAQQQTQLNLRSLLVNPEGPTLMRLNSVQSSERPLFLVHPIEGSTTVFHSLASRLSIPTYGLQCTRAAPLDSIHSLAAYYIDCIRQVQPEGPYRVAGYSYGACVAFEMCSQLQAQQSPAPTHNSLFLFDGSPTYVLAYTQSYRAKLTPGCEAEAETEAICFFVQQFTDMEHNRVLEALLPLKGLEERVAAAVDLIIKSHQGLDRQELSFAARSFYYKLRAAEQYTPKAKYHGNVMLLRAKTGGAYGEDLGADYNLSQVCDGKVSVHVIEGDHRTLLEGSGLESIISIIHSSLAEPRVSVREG
Procedure, shortened: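 Purified full-length hFASN (300 ng) converts ^3H-acetyl-CoA plus malonyl-CoA to ^3H-palmitate in 100 mM KH2PO4 pH 7.5, 1 mM DTT; compounds tested at 0.01–30 μM. Product captured on streptavidin imaging beads and read by LEADseeker at 610 nm after ≥24 h; 4-parameter logistic fit versus controls.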

Compound | IC50 (A2780 ovarian cells [1]) [µM] | IC50 (A2780 ovarian cells [2]) [µM] | inhibition at 10 µM [3] [%] | IC50 [3] [µM]
Cc1cc(-c2ccc3nn(C)c(CO)c3c2)ccc1C1=NC2(CC2)C(=O)N1CC1CN(C(=O)C2CC2)C1 [compound 587, 6-{[1-(Cyclopropylcarbonyl)azetidin-3-yl]methyl}-5-{4-[3-(hydroxymethyl)-2-methyl-2H-indazol-5-yl]-2-methylphenyl}-4,6-diazaspiro[2.4]hept-4-en-7-one] | > 10 | ~8.51 | 70 | 3.31
COCc1c2cc(-c3ccc(C4=NC5(CC5)C(=O)N4CC4CN(C(=O)C5CC5)C4)c(C)c3)ccc2nn1C [compound 589, 6-{[1-(Cyclopropylcarbonyl)azetidin-3-yl]methyl}-5-{4-[3-(methoxymethyl)-2-methyl-2H-indazol-5-yl]-2-methylphenyl}-4,6-diazaspiro[2.4]hept-4-en-7-one] | > 10 | 5.62 | 52 | 9.55
Cc1cc(-c2ccc3c(Cl)nn(C)c3c2)ccc1C1=NC2(CC2)C(=O)N1CC1CN(C(=O)C2CC2)C1 [compound 590, 5-[4-(3-Chloro-1-methyl-1H-indazol-6-yl)-2-methylphenyl]-6-{[1-(cyclopropylcarbonyl)azetidin-3-yl]methyl}-4,6-diazaspiro[2.4]hept-4-en-7-one] | > 10 | 3.31 | 80 | 1.74
O=C(C1CC1)N1CC(CN2C(=O)C3(CC3)N=C2c2ccc(-c3cc(Cl)c4cn[nH]c4c3)cc2F)C1 [compound 592, 5-[4-(4-Chloro-1H-indazol-6-yl)-2-fluorophenyl]-6-{[1-(cyclopropylcarbonyl)azetidin-3-yl]methyl}-4,6-diazaspiro[2.4]hept-4-en-7-one] | > 10 | 5.25 | 70 | 2.95
Cc1cc(-c2ccc(C3(C#N)CC3)cc2F)ccc1C1=NC2(CC2)C(=O)N1CC1CN(C(=O)C2(C)CC2)C1 [compound 593] | 9.55 | 6.76 | 56 | 7.08
Cc1cc(-c2ccc3ccc(Br)cc3n2)ccc1C1=NC2(CC2)C(=O)N1CC1CN(C(=O)C2(C)CC2)C1 [compound 595, 5-[4-(7-Bromoquinolin-2-yl)-2-methylphenyl]-6-({1-[(1-methylcyclopropyl)carbonyl]azetidin-3-yl}methyl)-4,6-diazaspiro[2.4]hept-4-en-7-one] | 6.61 | 3.24 | 83 | 1.35
Cc1cc(Cl)c2ccc(-c3ccc(C4=NC5(CC5)C(=O)N4CC4CN(C(=O)C5(C)CC5)C4)c(C)c3)cc2n1 [compound 597, 5-[4-(4-Chloro-2-methylquinolin-7-yl)-2-methylphenyl]-6-({1-[(1-methylcyclopropyl)carbonyl]azetidin-3-yl}methyl)-4,6-diazaspiro[2.4]hept-4-en-7-one] | 4.37 | 3.63 | 65 | ~4.27
Cc1ccc2c(-c3ccc(C4=NC5(CC5)C(=O)N4CC4CN(C(=O)C5(C)CC5)C4)c(C)c3)cccc2n1 [compound 603, 6-({1-[(1-Methylcyclopropyl)carbonyl]azetidin-3-yl}methyl)-5-[2-methyl-4-(2-methylquinolin-5-yl)phenyl]-4,6-diazaspiro[2.4]hept-4-en-7-one] | > 10 | ~3.31 | 87 | 1.15
Cc1cc(-c2cc(C)c3ccc(Br)cc3n2)ccc1C1=NC2(CC2)C(=O)N1CC1CN(C(=O)C2(C)CC2)C1 [compound 605, 5-[4-(7-Bromo-4-methylquinolin-2-yl)-2-methylphenyl]-6-({1-[(1-methylcyclopropyl)carbonyl]azetidin-3-yl}methyl)-4,6-diazaspiro[2.4]hept-4-en-7-one] | 6.31 | 4.79 | 62 | 6.61
Cc1cc(-c2ccc3nn(C)c(C#N)c3c2)ccc1C1=NC2(CC2)C(=O)N1CC1CN(C(=O)C2CC2)C1 [compound 610] | 4.57 | 2.88 | 87 | 1.05
N#Cc1ccc2ccc(-c3ccc(C4=NC5(CC5)C(=O)N4CC4CN(C(=O)C5CC5)C4)cc3)cc2n1 [compound 611, 7-[4-(6-{[1-(Cyclopropylcarbonyl)azetidin-3-yl]methyl}-7-oxo-4,6-diazaspiro[2.4]hept-4-en-5-yl)phenyl]quinolin-2-carbonitrile] | > 10 | > 10 | 46 | ~10
Cn1ncc2cc(-c3ccc(C4=NC5(CC5)C(=O)N4CC4CN(C(=O)C5CC5)C4)cc3Cl)ccc21 [compound 612, 5-[3-Chloro-4-(1-methyl-1H-indazol-5-yl)phenyl]-6-{[1-(cyclopropylcarbonyl)azetidin-3-yl]methyk}-4,6-diazaspiro[2.4]hept-4-en-7-one] | > 10 | 3.8 | 74 | 2.04
Cc1cc(-c2ccc3ccc(C(F)(F)F)nc3c2)ccc1C1=NC2(CC2)C(=O)N1CC1CN(C(=O)C2(C)CC2)C1 [compound 620, 6-({1-[(1-Methylcyclopropyl)carbonyl]azetidin-3-yl}methyl)-5-{2-methyl-4-[2-(trifluoromethyl)quinolin-7-yl]phenyl}-4,6-diazaspiro[2.4]hept-4-en-7-one] | > 10 | ~4.79 | 71 | 3.98
Cc1cc(-c2ccc3c(C)cc(Cl)nc3c2)ccc1C1=NC2(CC2)C(=O)N1CC1CN(C(=O)C2(C)CC2)C1 [compound 624, 5-[4-(2-Chloro-4-methylquinolin-7-yl)-2-methylphenyl]-6-({1-[(1-methylcyclopropyl)carbonyl]azetidin-3-yl}methyl)-4,6-diazaspiro[2.4]hept-4-en-7-one] | 6.61 | 1.45 | 76 | 2.24
Cc1cc(-c2cc(Cl)c3cn[nH]c3c2)ccc1C1=NC2(CC2)C(=O)N1CC1CN(C(=O)C2CC2)C1 [compound 629, 5-[4-(4-Chloro-1H-indazol-6-yl)-2-methylphenyl]-6-{[1-(cyclopropylcarbonyl)azetidin-3-yl]methyl}-4,6-diazaspiro[2.4]hept-4-en-7-one] | > 10 | 7.76 | 55 | 7.41
O=C(C1CC1)N1CC(CN2C(=O)C3(CC3)N=C2c2ccc(-c3cc(C(F)(F)F)ccc3F)cc2F)C1 [compound 630, 6-{[1-(Cyclopropylcarbonyl)azetidin-3-yl]methyl}-5-[2′,3-difluoro-5′-(trifluoromethyl)biphenyl-4-yl]-4,6-diazaspiro[2.4]hept-4-en-7-one] | > 10 | 4.07 | 67 | 3.16
CC(C)S(=O)(=O)c1cccc(-c2ccc(C3=NC4(CC4)C(=O)N3CC3CN(C(=O)C4CC4)C3)c(F)c2)c1 [compound 631, 6-{[1-(Cyclopropylcarbonyl)azetidin-3-yl]methyl}-5-{3-fluoro-3′-[(1-methylethyl)sulfonyl]biphenyl-4-yl}-4,6-diazaspiro[2.4]hept-4-en-7-one] | > 10 | 5.89 | 47 | 8.51
